Data from article PMC8646019, “Azvudine is a thymus-homing anti-SARS-CoV-2 drug effective in treating COVID-19 patients” (Signal Transduction and Targeted Therapy, 2021).

Assay: Biodistribution and metabolism of FNC in rats (UHPLC-MS/MS)
Settings: male, Sprague-Dawley, in vivo, rat, FNC 5 mg/kg oral, average n=5, read-out: Concentration in kidney
Experimental: Fig. 2 Thymus-homing distribution and metabolism of FNC after oral administration in rats. Twenty-five male Sprague–Dawley rats were orally administered with FNC at a single dose of 5 mg/kg. At the time point of 1, 2, 6, 12, and 24 h after drug administration, 5 rats were dissected. The blood, as well as the heart, liver, spleen, lung, kidney, brain, thymus, testis, and epididymis, were collected. Peripheral blood mononuclear cells (PBMCs) were isolated from blood using Histopaque-1083. The distribution of FNC in plasma, PBMCs, and the different tissues was evaluated through UHPLC–MS/MS analysis performed on an UHPLC system (1290 series, Agilent Technologies, USA) coupled to a triple quadrupole mass spectrometer (Agilent 6470 QQQ). a Metabolic pathway of FNC. b FNC distribution in tissues and plasma (5 mg/kg, oral). c FNC-TP levels in the blood (5 mg/kg, oral). d FNC-TP levels in tissues (5 mg/kg, oral). e FNC and its phosphate metabolites (FNC-MP, FNC-DP, and FNC-TP) in the thymus (5 mg/kg). f FNC and its phosphate metabolites in PBMCs (5 mg/kg).
25 male Sprague-Dawley rats (200 ± 15 g) were purchased from Vital River Laboratories Co., LTD (Beijng, China). The animals were housed under specific pathogen-free conditions (12 h light/12 h dark photoperiod, 25 ± 2°C, 50±5% relative humidity). All rats were allowed to acclimate for 1 week before experiments. Research was conducted in accordance with all institutional guidelines and ethics and approved by the Laboratories Institutional Animal Care and Use Committee of the Chinese Academy of Medical Sciences and Peking Union Medical College.
Rats were divided randomly into five groups with five rats in each, and were administered with azvudine at a single dose of 5 mg/kg. At the time point of 1h, 2h, 6h, 12h and 24h after drug administration, rats in one group were dissected with euthanization and blood samples were collected using heparin as an anticoagulant. 0.5 ml of blood was transferred to another 1.5ml eppendorf tube to obtain plasma by centrifugation (3500 r/min ×15 min). The tissues, including heart, liver, spleen, lung, kidney, brain, thymus, testis, and epididymis, were collected, and washed with cold 0.9% normal saline, and then kept at -80°C until analysis.
Peripheral blood mononuclear cells (PBMCs) were isolated from blood using Histopaque-1083 according to the manufacturer’s protocol. Firstly, 2 mL of blood collected in heparin sodium tube was diluted with 2 mL of PBS solution. Then, 4mL of diluted blood was layered on top of 4 mL Histopaque-1083 and centrifuged for 30 min at 2000 r/min. PBMCs were then aspirated, washed twice with PBS solution, suspended in PBS, and counted with a hemocytometer. Furtherly, PBMCs were centrifuged (2000 r/min ×10 min), lysed with 1ml of cold 80% methanol for 12h, then ultrasonic for cell disruption (3min). Finally, the cell lysates were stored in -80°C until sample preparation.
Tissue samples were weighed and 2-fold volume of 0.9% saline containing phosphatase inhibitor was added to prepare the homogenate on the ice. Then tissue homogenate was ultrasonic extracted for 5 min in the ice bath. 200μL of plasma or tissue homogenate was transferred into a 1.5 ml eppendorf tube and added 600 μL of methanol solution with internal standards. The sample was vortexed for 5 min and kept at 4°C for 15min, then centrifuged at 13000r/min for 10 min (4°C). […]

Structure (SMILES): [N-]=[N+]=N[C@]1(CO)O[C@@H](n2ccc(N)nc2=O)[C@@H](F)[C@@H]1O [FNC, 2′-deoxy-2′-β-fluoro-4′-azidocytidine]
- concentration at 1 h (1 h): 515 ng/g
- concentration at 2 h (2 h): 798 ng/g
- concentration at 6 h (6 h): 269 ng/g
- concentration at 12 h (12 h): 76.5 ng/g
- concentration at 24 h (24 h): 78.1 ng/g
